Source: PubChem BioAssay (NCI)
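Results reflect a 48-hour exposure of cells in 96-well plates to compound at five concentrations. GI50: concentration for 50% inhibition of growth. TGI: total growth inhibition.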

Key:
Assay in all cases: inhibition of tumour cell growth, NCI panel, 48 h
HCT-116 colon = test system: HCT-116 colon
SF-268 CNS = test system: SF-268 CNS
HT29 colon = test system: HT29 colon
SK-MEL-2 melanoma = test system: SK-MEL-2 melanoma
NCI/ADR-RES ovarian = test system: NCI/ADR-RES ovarian
OVCAR-5 ovarian = test system: OVCAR-5 ovarian
T-47D breast = test system: T-47D breast
SF-295 CNS = test system: SF-295 CNS
U251 CNS = test system: U251 CNS
HCC-2998 colon = test system: HCC-2998 colon
MDA-MB-231 breast = test system: MDA-MB-231 breast
HOP-62 NSCLC = test system: HOP-62 NSCLC
HCT-15 colon = test system: HCT-15 colon
LOX IMVI melanoma = test system: LOX IMVI melanoma
UO-31 renal = test system: UO-31 renal
RXF 393 renal = test system: RXF 393 renal
SK-MEL-28 melanoma = test system: SK-MEL-28 melanoma
M14 melanoma = test system: M14 melanoma
ACHN renal = test system: ACHN renal
MOLT-4 leukemia = test system: MOLT-4 leukemia
SNB-75 CNS = test system: SNB-75 CNS
SN12C renal = test system: SN12C renal
SR leukemia = test system: SR leukemia
HL-60(TB) leukemia = test system: HL-60(TB) leukemia
SF-539 CNS = test system: SF-539 CNS
RPMI-8226 leukemia = test system: RPMI-8226 leukemia
UACC-62 melanoma = test system: UACC-62 melanoma
CAKI-1 renal = test system: CAKI-1 renal
HS 578T breast = test system: HS 578T breast
UACC-257 melanoma = test system: UACC-257 melanoma
SK-MEL-5 melanoma = test system: SK-MEL-5 melanoma
OVCAR-4 ovarian = test system: OVCAR-4 ovarian
A549 NSCLC = test system: A549 NSCLC
OVCAR-3 ovarian = test system: OVCAR-3 ovarian
BT-549 breast = test system: BT-549 breast
NCI-H226 lung = test system: NCI-H226 lung
HOP-92 NSCLC = test system: HOP-92 NSCLC
A498 renal = test system: A498 renal
PC-3 prostate = test system: PC-3 prostate
CCRF-CEM leukemia = test system: CCRF-CEM leukemia
MALME-3M melanoma = test system: MALME-3M melanoma
SW-620 colon = test system: SW-620 colon
MDA-MB-435 = test system: MDA-MB-435
NCI-H460 lung = test system: NCI-H460 lung
DU-145 prostate = test system: DU-145 prostate
786-0 renal = test system: 786-0 renal
KM12 colon = test system: KM12 colon
TK-10 renal = test system: TK-10 renal
K-562 leukemia = test system: K-562 leukemia
COLO 205 colon = test system: COLO 205 colon
SNB-19 CNS = test system: SNB-19 CNS
MCF7 breast = test system: MCF7 breast
NCI-H23 lung = test system: NCI-H23 lung
IGROV1 ovarian = test system: IGROV1 ovarian
NCI-H522 lung = test system: NCI-H522 lung
EKVX NSCLC = test system: EKVX NSCLC

`CCOC(=O)c1c(NCC(=O)Nc2cccc([N+](=O)[O-])c2)sc(C(C)=O)c1C` gave a GI50 (HCT-116 colon) of 1.71 µM, a TGI (HCT-116 colon) of 5.02 µM and a GI50 (SF-268 CNS) of 2.11 µM. For the same molecule, the TGI (SF-268 CNS) was 5.16 µM, the GI50 (HT29 colon) was 0.797 µM and the TGI (HT29 colon) was 3.26 µM. For the same molecule, the GI50 (SK-MEL-2 melanoma) was 2.01 µM, the TGI (SK-MEL-2 melanoma) was 4.84 µM and the GI50 (NCI/ADR-RES ovarian) was 1.77 µM. The TGI (NCI/ADR-RES ovarian) was 5.39 µM, the GI50 (OVCAR-5 ovarian) was 1.42 µM and the TGI (OVCAR-5 ovarian) was 4.19 µM. It also gave a GI50 (T-47D breast) of 2.31 µM, a TGI (T-47D breast) of 6.71 µM and a GI50 (SF-295 CNS) of 2.17 µM. For the same molecule, the TGI (SF-295 CNS) was 5.11 µM, the GI50 (U251 CNS) was 2.36 µM and the TGI (U251 CNS) was 9.14 µM. It also gave a GI50 (HCC-2998 colon) of 1.98 µM, a TGI (HCC-2998 colon) of 3.91 µM and a GI50 (MDA-MB-231 breast) of 2.12 µM. For the same molecule, the TGI (MDA-MB-231 breast) was 4.77 µM, the GI50 (HOP-62 NSCLC) was 2.5 µM and the TGI (HOP-62 NSCLC) was 6.58 µM. It also gave a GI50 (HCT-15 colon) of 0.845 µM, a TGI (HCT-15 colon) of 5.35 µM and a GI50 (LOX IMVI melanoma) of 0.411 µM. It also gave a TGI (LOX IMVI melanoma) of 1.67 µM, a GI50 (UO-31 renal) of 1.27 µM and a TGI (UO-31 renal) of 2.62 µM. For the same molecule, the GI50 (RXF 393 renal) was 1.21 µM, the TGI (RXF 393 renal) was 2.51 µM and the GI50 (SK-MEL-28 melanoma) was 1.78 µM. The TGI (SK-MEL-28 melanoma) was 3.71 µM, the GI50 (M14 melanoma) was 1.5 µM and the TGI (M14 melanoma) was 3.28 µM. For the same molecule, the GI50 (ACHN renal) was 1.5 µM, the TGI (ACHN renal) was 2.9 µM and the GI50 (MOLT-4 leukemia) was 0.57 µM. The TGI (MOLT-4 leukemia) was over 100 µM, the GI50 (SNB-75 CNS) was 2.03 µM and the TGI (SNB-75 CNS) was 5.61 µM. For the same molecule, the GI50 (SN12C renal) was 1.84 µM, the TGI (SN12C renal) was 5.4 µM and the GI50 (SR leukemia) was 0.646 µM. The TGI (SR leukemia) was over 100 µM, the GI50 (HL-60(TB) leukemia) was 2.57 µM and the TGI (HL-60(TB) leukemia) was 14.2 µM. The GI50 (SF-539 CNS) was 1.82 µM, the TGI (SF-539 CNS) was 4.48 µM and the GI50 (RPMI-8226 leukemia) was 2.51 µM. For the same molecule, the TGI (RPMI-8226 leukemia) was 6.79 µM, the GI50 (UACC-62 melanoma) was 0.574 µM and the TGI (UACC-62 melanoma) was 2.14 µM. It also gave a GI50 (CAKI-1 renal) of 1.27 µM, a TGI (CAKI-1 renal) of 3.65 µM and a GI50 (HS 578T breast) of 2.05 µM. For the same molecule, the TGI (HS 578T breast) was 5.97 µM, the GI50 (UACC-257 melanoma) was 2.5 µM and the TGI (UACC-257 melanoma) was 7.47 µM. The GI50 (SK-MEL-5 melanoma) was 1.68 µM, the TGI (SK-MEL-5 melanoma) was 3.17 µM and the GI50 (OVCAR-4 ovarian) was 2.23 µM. It also gave a TGI (OVCAR-4 ovarian) of 6.36 µM, a GI50 (A549 NSCLC) of 2.57 µM and a TGI (A549 NSCLC) of 8.02 µM. For the same molecule, the GI50 (OVCAR-3 ovarian) was 2.29 µM, the TGI (OVCAR-3 ovarian) was 5.69 µM and the GI50 (BT-549 breast) was 1.44 µM. The TGI (BT-549 breast) was 4.85 µM, the GI50 (NCI-H226 lung) was 1.64 µM and the TGI (NCI-H226 lung) was 4.46 µM. The GI50 (HOP-92 NSCLC) was 1.68 µM, the TGI (HOP-92 NSCLC) was 4.56 µM and the GI50 (A498 renal) was 1.7 µM. For the same molecule, the TGI (A498 renal) was 3.31 µM, the GI50 (PC-3 prostate) was 0.794 µM and the TGI (PC-3 prostate) was 3.63 µM. For the same molecule, the GI50 (CCRF-CEM leukemia) was 0.585 µM, the TGI (CCRF-CEM leukemia) was over 100 µM and the GI50 (MALME-3M melanoma) was 1.51 µM. It also gave a TGI (MALME-3M melanoma) of 3.06 µM, a GI50 (SW-620 colon) of 0.491 µM and a TGI (SW-620 colon) of 7.69 µM. For the same molecule, the GI50 (MDA-MB-435) was 1.68 µM, the TGI (MDA-MB-435) was 3.1 µM and the GI50 (NCI-H460 lung) was 1.21 µM. It also gave a TGI (NCI-H460 lung) of 3.26 µM, a GI50 (DU-145 prostate) of 2.21 µM and a TGI (DU-145 prostate) of 5.91 µM. It also gave a GI50 (786-0 renal) of 1.97 µM, a TGI (786-0 renal) of 4.21 µM and a GI50 (KM12 colon) of 2.61 µM. For the same molecule, the TGI (KM12 colon) was 7.99 µM, the GI50 (TK-10 renal) was 2.1 µM and the TGI (TK-10 renal) was 6.81 µM. It also gave a GI50 (K-562 leukemia) of 1.89 µM, a TGI (K-562 leukemia) of over 100 µM and a GI50 (COLO 205 colon) of 1.65 µM. For the same molecule, the TGI (COLO 205 colon) was 4.6 µM, the GI50 (SNB-19 CNS) was 2.31 µM and the TGI (SNB-19 CNS) was 6.5 µM. The GI50 (MCF7 breast) was 1.44 µM, the TGI (MCF7 breast) was 5.21 µM and the GI50 (NCI-H23 lung) was 1.14 µM. The TGI (NCI-H23 lung) was 3.45 µM, the GI50 (IGROV1 ovarian) was 0.414 µM and the TGI (IGROV1 ovarian) was 1.62 µM. It also gave a GI50 (NCI-H522 lung) of 1.28 µM, a TGI (NCI-H522 lung) of 4.12 µM and a GI50 (EKVX NSCLC) of 2.1 µM. The TGI (EKVX NSCLC) was 5.52 µM.
